Assay results reported in US6946458B2, “N-thiolated beta-lactams: novel antibacterial agents for methicillin-resistant Staphylococcus aureus” (University of South Florida, priority 1999, dated 2005).
Where two headings read alike, the source gives them in different places.

Tests used:
N. gonorrhoeae = experiment: Kirby-Bauer agar disk diffusion; type: cell-based, Neisseria gonorrhoeae; conditions: Table 1; 6-mm disks, 20 μg test compound, 24 h, triplicate; β-lactamase positive
Procedure: In this study, a selection of N-methylthio-substituted β-lactams are examined for antimicrobial activity by the Kirby-Bauer disk diffusion method on agar plates. A variety of common Gram-positive and Gram-negative bacteria are tested, including clinical isolates of methicillin-resistant Staphylococcus aureus (MRSA).
Compound susceptibility measurements are obtained from agar disk diffusion experiments using 6-mm air-dried disks impregnated with 20 μg of the test compound. The values correspond to the average diameters in mm (triplicate experiments) for the zone of growth inhibition observed after 24 h. Staphylococcus aureus (ATCC 25923) and β-lactamase-producing strains of methicillin-resistant Staphylococcus aureus (labeled as MRSA USF652-659) are obtained from Lakeland Regional Medical Center, Lakeland, Fla. Staphylococcus epidermidis, Staphylococcus simulans, Staphylococcus simulans, and Microcossus luteus are clinical isolates from University of South Florida Medical Clinic. Nieserria gonnorhoeae (β-lactamase positive) is obtained from the Tampa Branch State Laboratory. PenG is penicillin G (potassium salt). Table 1 provides the zones of growth inhibition that are observed after 24 hours using the lactams of FIGS. 1A-1I (designated A-I, respectively).

MRSA USF658 = experiment: Kirby-Bauer agar disk diffusion; type: cell-based, Staphylococcus aureus; design: Kirby-Bauer Disc Diffusion Test Results: unit not given here; conditions: for zone of growth inhibition, average diameter: Table 1, 6-mm disks, 20 μg test compound, 24 h, triplicate; for zone of inhibition at 20 µg/disc: Staphylococcus aureus, MRSA; for Kirby-Bauer Disc Diffusion Test Results: Table 5, beta-lactamase producing strain
How it was run: (§1)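 Zones of inhibition, in mm and averaged over three runs, are measured after 24 h around 6-mm disks dosed with 20 μg compound on agar lawns of β-lactamase-producing MRSA.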

MRSA USF652 = experiment: Kirby-Bauer agar disk diffusion; type: cell-based, Staphylococcus aureus; design: Kirby-Bauer Disc Diffusion Test Results: unit not given here; conditions: for zone of growth inhibition, average diameter: Table 1, 6-mm disks, 20 μg test compound, 24 h, triplicate; for zone of inhibition at 20 µg/disc: Staphylococcus aureus, MRSA; for Kirby-Bauer Disc Diffusion Test Results: Table 5, beta-lactamase producing strain
How it was run: as §1

MRSA USF657 = experiment: Kirby-Bauer agar disk diffusion; type: cell-based, Staphylococcus aureus; design: Kirby-Bauer Disc Diffusion Test Results: unit not given here; conditions: for zone of growth inhibition, average diameter: Table 1, 6-mm disks, 20 μg test compound, 24 h, triplicate; for zone of inhibition at 20 µg/disc: Staphylococcus aureus, MRSA; for Kirby-Bauer Disc Diffusion Test Results: Table 5, beta-lactamase producing strain
How it was run: as §1

MRSA USF654 = experiment: Kirby-Bauer agar disk diffusion; type: cell-based, Staphylococcus aureus; design: Kirby-Bauer Disc Diffusion Test Results: unit not given here; conditions: for zone of growth inhibition, average diameter: Table 1, 6-mm disks, 20 μg test compound, 24 h, triplicate; for zone of inhibition at 20 µg/disc: Staphylococcus aureus, MRSA; for Kirby-Bauer Disc Diffusion Test Results: Table 5, beta-lactamase producing strain
How it was run: as §1

MRSA USF659 = experiment: Kirby-Bauer agar disk diffusion; type: cell-based, Staphylococcus aureus; design: Kirby-Bauer Disc Diffusion Test Results: unit not given here; conditions: for zone of growth inhibition, average diameter: Table 1, 6-mm disks, 20 μg test compound, 24 h, triplicate; for zone of inhibition at 20 µg/disc: Staphylococcus aureus, MRSA; for Kirby-Bauer Disc Diffusion Test Results: Table 5, beta-lactamase producing strain
How it was run: as §1

MRSA USF655 = experiment: Kirby-Bauer agar disk diffusion; type: cell-based, Staphylococcus aureus; design: Kirby-Bauer Disc Diffusion Test Results: unit not given here; conditions: for zone of growth inhibition, average diameter: Table 1, 6-mm disks, 20 μg test compound, 24 h, triplicate; for zone of inhibition at 20 µg/disc: Staphylococcus aureus, MRSA; for Kirby-Bauer Disc Diffusion Test Results: Table 5
How it was run: as §1

MRSA USF653 = experiment: Kirby-Bauer agar disk diffusion; type: cell-based, Staphylococcus aureus; design: Kirby-Bauer Disc Diffusion Test Results: unit not given here; conditions: for zone of growth inhibition, average diameter: Table 1, 6-mm disks, 20 μg test compound, 24 h, triplicate; for zone of inhibition at 20 µg/disc: Staphylococcus aureus, MRSA; for Kirby-Bauer Disc Diffusion Test Results: Table 5, beta-lactamase producing strain
How it was run: as §1

MRSA USF656 = experiment: Kirby-Bauer agar disk diffusion; type: cell-based, Staphylococcus aureus; design: Kirby-Bauer Disc Diffusion Test Results: unit not given here; conditions: for zone of growth inhibition, average diameter: Table 1, 6-mm disks, 20 μg test compound, 24 h, triplicate; for zone of inhibition at 20 µg/disc: Staphylococcus aureus, MRSA; for Kirby-Bauer Disc Diffusion Test Results: Table 5, beta-lactamase producing strain
How it was run: as §1

[1] = tested on: Staphylococcus epidermidis; experiment: Kirby-Bauer agar disk diffusion; type: cell-based; conditions: Table 1; 6-mm disks, 20 μg test compound, 24 h, triplicate
How it was run: (§2)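 Agar disk diffusion used 6-mm air-dried disks carrying 20 μg of compound. Values are mean diameters (mm) of the growth-inhibition zone at 24 h, from triplicate experiments. S. epidermidis and S. simulans were clinical isolates.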

Micrococcus luteus = experiment: Kirby-Bauer agar disk diffusion; type: cell-based; conditions: Table 1; 6-mm disks, 20 μg test compound, 24 h, triplicate
How it was run: as §2

[2] = tested on: Staphylococcus aureus (ATCC 25923); experiment: Kirby-Bauer agar disk diffusion; type: cell-based; conditions: Table 1; 6-mm disks, 20 μg test compound, 24 h, triplicate
How it was run: as §2

S. simulans (ATCC 11631) = experiment: Kirby-Bauer agar disk diffusion; type: cell-based, Staphylococcus simulans; conditions: Table 1; 6-mm disks, 20 μg test compound, 24 h, triplicate
How it was run: as §2

[3] = tested on: S. saprophyticus (ATCC 3552); experiment: Kirby-Bauer agar disk diffusion; type: cell-based, Staphylococcus saprophyticus; conditions: Table 1; 6-mm disks, 20 μg test compound, 24 h, triplicate
How it was run: as §2

MRSA cells = experiment: light microscopy after Gram staining; type: cell-based, Staphylococcus aureus; conditions: for cells Gram-stained purple: Example 5, MRSA cells grown in presence of the substance
Source text: (§3) In fact, only small isolated colonies of surviving cells can be found, all of which appear perfectly normal in size, shape, smoothness, and clustering behavior. […] Pulse radiolabeling experiments indicate that the lactam of FIG. 1D blocks the bacterial uptake of ^3H-uridine and ^3H-leucine at low (MIC) levels (Lim, D. V. et al. Microbiology, 1977, 33:328; Champney, W. S. and C. G. Tober Antimicrob. Agents and Chemother., 2000, 44:1413).
(FIGS. 14A-14C) S. aureus is a Gram-positive microorganism, and thus reacts with Gram stain to produce a purple coloration due to binding of the stain to the peptidoglycan. 100% of MRSA cells grown either in the absence or presence of the lactam of FIG. 11F take on a purple color when Gram stained (top and center images, next page). In contrast, for MRSA cells treated with penicillin G or vancomycin (cell wall synthesis inhibitors), only about 30% of the cells are Gram-stained purple, with the remainder of the cells appearing pink (bottom image, next page) due to morphologically altered walls. This is strong evidence that the N-methylthio lactams are not affecting late stage events in cell wall biosynthesis.

[4] = tested on: cultures of S. aureus and MRSA; experiment: electron microscopy of cell morphology; type: cell-based, Staphylococcus aureus
Source text: The structure-bioactivity patterns observed for these N-thiolated lactams are highly atypical for a β-lactam antibiotic. The compounds are lipohilic and devoid of the typical acidic ring functionality required for recognition by the penicillin binding proteins. The implication that the lactams set forth in FIGS. 1A-1I are not acting in the same manner or on the same enzymes as the traditional β-lactam drugs is supported by electron microscopy experiments, which confirm that cell morphology is unaffected by the lactam of FIG. 1D (Greenwood, D. et al. Science, 1969, 163:1076).
as §3
Light microscopy and scanning electron microscopy experiments have enabled us to look for cell wall damage in cultures of S. aureus and MRSA grown in the presence of N-methylthio lactam (FIG. 11F) over a range of different concentrations and cell growth conditions. […] Those cells that survive the treatment appear normal (coccal) and fully mature.

Staph aureus 525 = experiment: Kirby-Bauer agar disk diffusion; type: cell-based, Staphylococcus aureus; conditions: Table 5
[5] = read-out: The Zone of Inhibition

SMILES: COC1C(=O)N(SC)C1C=Cc1ccccc1 (racemic) [Lactam B]
- zone of growth inhibition, average diameter (N. gonorrhoeae): 11 mm
- zone of growth inhibition, average diameter (MRSA USF658): 16 mm
- zone of growth inhibition, average diameter (MRSA USF652): 19 mm
- zone of growth inhibition, average diameter (MRSA USF657): 17 mm
- zone of growth inhibition, average diameter (MRSA USF654): 16 mm
- zone of growth inhibition, average diameter (MRSA USF659): 15 mm
- zone of growth inhibition, average diameter (MRSA USF655): 17 mm
- zone of growth inhibition, average diameter (MRSA USF653): 23 mm
- zone of growth inhibition, average diameter (MRSA USF656): 19 mm
- zone of growth inhibition, average diameter [1]: 23 mm
- zone of growth inhibition, average diameter (Micrococcus luteus): 20 mm
- zone of growth inhibition, average diameter [2]: 18 mm
- zone of growth inhibition, average diameter (S. simulans (ATCC 11631)): 11 mm
- zone of growth inhibition, average diameter [3]: 12 mm

SMILES: CN[C@H](CC(C)C)C(=O)N[C@H]1C(=O)N[C@@H](CC(N)=O)C(=O)N[C@H]2C(=O)N[C@H]3C(=O)N[C@H](C(=O)N[C@H](C(=O)O)c4cc(O)cc(O)c4-c4cc3ccc4O)[C@H](O)c3ccc(c(Cl)c3)Oc3cc2cc(c3O[C@@H]2O[C@H](CO)[C@@H](O)[C@H](O)[C@H]2O[C@H]2C[C@](C)(N)[C@H](O)[C@H](C)O2)Oc2ccc(cc2Cl)[C@H]1O [Vancomycin, reference compound]
- coloration upon Gram staining (MRSA cells; Example 1): pink coloration
- cells Gram-stained purple (MRSA cells): about 30%
- zone of inhibition at 20 µg/disc (MRSA USF658; [5]): 20 mm
- zone of inhibition at 20 µg/disc (MRSA USF658; read-out: Zones of Inhibition): 18 mm
- Kirby-Bauer Disc Diffusion Test Results (MRSA USF658): 18
- zone of inhibition at 20 µg/disc (MRSA USF652; [5]): 23 mm
- zone of inhibition at 20 µg/disc (MRSA USF652; read-out: Zones of Inhibition): 19 mm
- Kirby-Bauer Disc Diffusion Test Results (MRSA USF652): 19
- zone of inhibition at 20 µg/disc (MRSA USF657; [5]): 21 mm
- zone of inhibition at 20 µg/disc (MRSA USF657; read-out: Zones of Inhibition): 18 mm
- Kirby-Bauer Disc Diffusion Test Results (MRSA USF657): 18
- zone of inhibition at 20 µg/disc (MRSA USF654; [5]): 20 mm
- zone of inhibition at 20 µg/disc (MRSA USF654; read-out: Zones of Inhibition): 19 mm
- Kirby-Bauer Disc Diffusion Test Results (MRSA USF654): 19
- zone of inhibition at 20 µg/disc (MRSA USF659; [5]): 20 mm
- zone of inhibition at 20 µg/disc (MRSA USF659; read-out: Zones of Inhibition): 18 mm
- Kirby-Bauer Disc Diffusion Test Results (MRSA USF659): 18
- zone of inhibition at 20 µg/disc (MRSA USF655; [5]): 19 mm
- zone of inhibition at 20 µg/disc (MRSA USF655; read-out: Zones of Inhibition): 19 mm
- Kirby-Bauer Disc Diffusion Test Results (MRSA USF655): 19
- zone of inhibition at 20 µg/disc (MRSA USF653; [5]): 20 mm
- zone of inhibition at 20 µg/disc (MRSA USF653; read-out: Zones of Inhibition): 18 mm
- Kirby-Bauer Disc Diffusion Test Results (MRSA USF653): 18
- zone of inhibition at 20 µg/disc (MRSA USF656; [5]): 20 mm
- zone of inhibition at 20 µg/disc (MRSA USF656; read-out: Zones of Inhibition): 21 mm
- Kirby-Bauer Disc Diffusion Test Results (MRSA USF656): 21
- cell morphology ([4]; Example 1, electron microscopy, high magnification): wrinkled, deformed, or even sheared

SMILES: COC1C(=O)N(SC)C1c1ccccc1Cl (racemic) [FIG. 11F]
- cells Gram-stained purple (MRSA cells): 100%
- Kirby-Bauer Disc Diffusion Test Results (Staph aureus 525): 26
- Kirby-Bauer Disc Diffusion Test Results (MRSA USF658): 28
- Kirby-Bauer Disc Diffusion Test Results (MRSA USF652): 30
- Kirby-Bauer Disc Diffusion Test Results (MRSA USF657): 28
- Kirby-Bauer Disc Diffusion Test Results (MRSA USF654): 26
- Kirby-Bauer Disc Diffusion Test Results (MRSA USF659): 27
- Kirby-Bauer Disc Diffusion Test Results (MRSA USF655): 26
- Kirby-Bauer Disc Diffusion Test Results (MRSA USF653): 30
- Kirby-Bauer Disc Diffusion Test Results (MRSA USF656): 26
- cell counts ([4]; Example 5, cultures grown in the presence of the lactam): Highly reduced cell counts
- alterations in the shapes or sizes of remaining cells ([4]; Example 5, light and scanning electron microscopy, range of concentrations and growth conditions): in no cases have we found alterations in the shapes or sizes

SMILES: COC1C(=O)N(SC)C1c1cccc([N+](=O)[O-])c1 (racemic) [Lactam E]
- zone of growth inhibition, average diameter (N. gonorrhoeae): 12 mm
- zone of growth inhibition, average diameter (MRSA USF658): 17 mm
- zone of growth inhibition, average diameter (MRSA USF652): 17 mm
- zone of growth inhibition, average diameter (MRSA USF657): 18 mm
- zone of growth inhibition, average diameter (MRSA USF654): 16 mm
- zone of growth inhibition, average diameter (MRSA USF659): 11 mm
- zone of growth inhibition, average diameter (MRSA USF655): 14 mm
- zone of growth inhibition, average diameter (MRSA USF653): 22 mm
- zone of growth inhibition, average diameter (MRSA USF656): 18 mm
- zone of growth inhibition, average diameter [1]: 20 mm
- zone of growth inhibition, average diameter (Micrococcus luteus): 22 mm
- zone of growth inhibition, average diameter [2]: 15 mm
- zone of growth inhibition, average diameter (S. simulans (ATCC 11631)): 13 mm
- zone of growth inhibition, average diameter [3]: 15 mm
